Where “and” joins values, the source holds several entries; their conditions need not be identical. Identical values can stand only once. Entries after “also recorded” stand apart in the source; their conditions may differ.
Columns and labels:
[1] = biological target: T1, hTPC2 (Homo sapiens, UniProt Q8NHX9); experiment: Whole-endolysosome recordings of ITPC2; type: biochemical; settings: for inactivation of ITPC2, I500ms / I10ms: @-120mV; for PX / PNa, Ca2+ / PX / PNa, K+ / PX / PNa, Na+: TPC2 WT, agonist-activated ITPC2
T1 construct: expressed in transfected cells; host or cells: Cos1 and HEK293

[2] = biological target: T2, hTPC1 (Homo sapiens, UniProt Q9ULQ1); experiment: Whole-endolysosome recordings of ITPC1; type: biochemical
T2 construct: expressed in transfected cells; host or cells: Cos1
Method: It was therefore of interest to explore whether TCAs/LyNa-VAs could also act on TPC1. To investigate this, we used two different voltage paradigms. […] Second, we used a tail current paradigm to measure the amplitude of the peak inward current at −120 mV following prolonged steps to various potentials (Figure 4E).
Figure 4. […] HP = 0 mV. […] Dotted lines in A indicate where the currents were measured. […] Data are presented as Mean ± S.E.M (n = 3 patches). […] (G) Normalized I-V plots of basal voltage-dependent currents in WT TPC1- and TPC1^R540I-transfected cells. […] Figure 4—source data 1. […] Figure 4—figure supplement 1. […] (A) A voltage protocol that elicited ITPC1 tail currents as shown in Figure 4E (from −140 to 100 mV with a ∆V = 20 mV, 1 s with a 10 s inter-step interval). Arrows indicate where tail currents were measured. (B) A voltage protocol that elicited ITPC1 tail currents as shown in C. […] HP = 0 mV. […] (A) Basal whole-endolysosome ITPC1 (left) or ITPC1-R540I (right) was elicited by voltage steps (−140 to +100 mV with ΔV = 20 mV) in the absence of PI(3,5)P2 in TPC1-transfected Cos1 cells ([She et al., 2019]). Tail currents were elicited at −120 mV. (B) The effects of PI(3,5)P2 (0.3 µM) on ITPC1 (left) and ITPC1-R540I (right) step currents. […] A preconditioning voltage (+80 mV, 0.1 s) was applied before voltage steps starting from −140 to 100 mV (0.5 s, ∆V = 20 mV).
(§1) All TPC1 and TPC2 mutants were generated with a site-directed mutagenesis kit (Qiagen) using EGFP- human TPC1 and TPC2 as the templates. All constructs were confirmed by DNA sequencing.
(§2) Whole-endolysosome recordings were performed on manually isolated enlarged endolysosomes ([Wang et al., 2012]). In brief, a patch pipette was pressed against a cell and quickly pulled away to slice the cell membrane. Enlarged endolysosomes were released into a dish and identified by monitoring EGFP-TPC1/2 or the mCherry-TPC1/2 fluorescence. After formation of a gigaseal between the patch pipette and the enlarged endolysosome, capacitance transients were compensated. Voltage steps of several hundred mVs with millisecond duration were then applied to break into the vacuolar membrane. The whole-endolysosome configuration was verified by the re-appearance of capacitance transients after break-in.
(§3) Data were collected using an Axopatch 200A patch clamp amplifier, Digidata 1440, and pClamp 10.2 software (Axon Instruments). Whole-endolysosome currents were digitized at 10 kHz and filtered at 2 kHz. All experiments were conducted at room temperature (21–23°C), and all recordings were analyzed with pClamp 10.2, and Origin 8.0 (OriginLab, Northampton, MA). The permeability to cations (relative to PNa) was estimated based on following equations ([Lewis, 1979]) and Erev measurement under bi-ionic conditions:(1) PX/PNa=γNa/γX{[Na^+]Luminal/[X^+]Cytoplasmic}{exp([…])} (2) PCa/PNa=γNa/γCa{[Na^+]Cytoplasmic/[4[Ca^2+]Luminal}{exp(ErevF/RT)}{1+exp(ErevF/RT)} where R, T, F, Erev, and γ are, respectively, the gas constant, absolute temperature, Faraday constant, reversal potential, and activity coefficient. The liquid junction potentials were measured and corrected as described ([Neher, 1992]).

[3] = test system: T3, hTPC1^R540I; experiment: Whole-endolysosome recordings of ITPC1-R540I; type: biochemical, human
T3 construct: expressed in transfected cells; host or cells: Cos1

[4] = test system: T4, TPC2^N653G; experiment: Whole-endolysosome recordings of ITPC2-N653G; type: biochemical, human; settings: TPC2 N653G, agonist-activated current
T4 construct: expressed in transfected cells

[5] = test system: TPC1/2 DKO HAP1 cells; experiment: Whole-endolysosome recordings in TPC1/2 DKO HAP1 cells; type: biochemical, human
From the text: TCAs, with a general structure of an aromatic greasy core and an aliphatic chain containing a terminal amine, are lysosomotropic compounds that are known to be highly accumulating in the lysosomes due to proton trapping ([Beckmann et al., 2014]). We next tested the effects of LyNa-VAs in hTPC2-transfected Cos1 and HEK293 cells using whole-endolyosome patch-clamp.
Data are presented as Mean ± S.E.M (n = 3 patches). […] For panels B, D and F, individual data and Mean ± S.E.M are presented. *, p<0.05; **, p<0.01; ***, p<0.001; N.S., no significance. Figure 3—source data 1. […] Figure 3—figure supplement 1. […] Both individual data points and Mean ± S.E.M are presented (n ≥ 3 patches; also see individual data in Figure 3—figure supplement 1—source data 1). Figure 3—figure supplement 1—source data 1.
TPC1 and TPC2 CRISPR KO cells were generated in HAP1 cells using the CRISPR/Cas9 system. The TPC1 sequence (5'cttgcagtacttcagcaccc3', TPC1-sgRNA) and TPC2 sequence (5'ccccagcgtcgggctgctgc3', TPC2-sgRNA) were targeted with pSpCas9 (BB)−2A-puro vector (Addgene). HAP1 cells were co-transfected with TPC1 and TPC2-sgRNA expressing vector in the presence of Lipofectamine 2000 (In vitrogen) and selected with 2 μg/ml puromycin for 48 hr. The remaining cells were trypsinized and seeded into 96-well plate after a limiting dilution. When single cell clones were established, their genomic DNAs were extracted and amplified with following primers: TPC1-fw: 5’atggcccagacatgtgactc3’, TPC1-re: 5’ tgcctgtctccatcctctca3’; TPC2-fw: 5’tgagctgagcatgaggcaag3’, TPC2-re: 5’ aaaggacaagtggccctgag3’. The PCR amplicons were then sequenced to confirm the intended genetic disruption.
as §2
as §3, with “coefficient.” for “coefficient. The liquid junction potentials were measured and corrected as described ([Neher, 1992]).”

[6] = test system: surface-expressing mutant TRPML1 channels (TRPML1^4A); experiment: Whole-cell recordings of ITRPML1-4A; type: cell-based; settings: TRPML1-4A wc; individual cells
[7] = biological target: T5, surface-expressing mutant TPC2 channel (TPC2^LL/AA) in HEK293 cells (Homo sapiens, UniProt Q8NHX9, L11A/L12A); experiment: Whole-cell recordings of ITPC2-LL/AA; type: cell-based; settings: for current density: whole cell recordings, individual recordings
T5 construct: expressed in transfected cells; host or cells: HEK293
From the text: We therefore characterized the responses of TPC2 channels to TCAs in detail using electrophysiological methods. We first performed whole-cell recordings in HEK293 cells that were transfected with surface-expressed TPC2 mutant channels (TPC2-L^11L^12-AA; abbreviated as TPC2^LL/AA hereafter).
as §1
Cells were transfected with Lipofectamine 2000 (Invitrogen). After culture media were refreshed 18–24 hr post-transfection, cells were used for the electrophysiological assays 24–36 hr post-transfection.
All bath solutions were applied via a perfusion system that allowed complete solution exchange within a few seconds. […] Whole-cell currents were digitized at 10 kHz and filtered at 2 kHz.

[8] = PI(3,5)P2 0.3 µM, LyNa-VA1.2 100 µM, LyNA1 300 µM, individual tests, listed as pip2

T1 sequence (Q8NHX9 whole entry): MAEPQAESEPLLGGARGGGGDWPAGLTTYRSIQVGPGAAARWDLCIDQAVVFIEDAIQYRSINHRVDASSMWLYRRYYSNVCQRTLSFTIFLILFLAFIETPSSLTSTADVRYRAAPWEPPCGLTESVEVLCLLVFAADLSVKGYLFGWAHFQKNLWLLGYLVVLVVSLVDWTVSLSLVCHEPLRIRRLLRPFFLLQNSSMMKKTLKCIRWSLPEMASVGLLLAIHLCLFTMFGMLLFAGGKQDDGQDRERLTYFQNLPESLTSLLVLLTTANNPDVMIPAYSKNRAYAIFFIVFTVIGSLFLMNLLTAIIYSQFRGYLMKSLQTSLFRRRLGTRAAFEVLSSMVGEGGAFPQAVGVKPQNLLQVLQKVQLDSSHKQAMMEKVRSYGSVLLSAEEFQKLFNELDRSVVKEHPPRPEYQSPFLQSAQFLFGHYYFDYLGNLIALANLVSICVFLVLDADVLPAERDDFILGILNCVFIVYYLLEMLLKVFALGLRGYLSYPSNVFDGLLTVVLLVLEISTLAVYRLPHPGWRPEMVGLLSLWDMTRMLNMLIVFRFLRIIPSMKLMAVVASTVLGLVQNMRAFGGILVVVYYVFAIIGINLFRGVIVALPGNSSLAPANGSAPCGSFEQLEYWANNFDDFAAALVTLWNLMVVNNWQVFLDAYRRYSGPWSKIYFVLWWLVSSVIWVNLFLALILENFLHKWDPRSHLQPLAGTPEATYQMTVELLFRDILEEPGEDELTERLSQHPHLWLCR
T5 sequence (Q8NHX9 whole entry L11A/L12A): as the sequence (Q8NHX9 whole entry) above, with L11A, L12A counted along it

Molecule: PI(3,5)P2
- voltage dependence of TPC2 activation (in words) [1]: voltage independent; also recorded: no apparent voltage-dependent activation
- inactivation of ITPC2, I500ms / I10ms [1, 8]: 1.002 and 0.9763 and 0.9931 and 0.9868
- inactivation of ITPC2, I500ms / I10ms ([1]; mean): 0.9895
- Rectification index of ITPC2, I+80mV/I-80mV [1, 8]: 0.8422 and 1.096 and 1.053 and 1.001
- Rectification index of ITPC2, I+80mV/I-80mV ([1]; PI(3,5)P2 0.3 µM, LyNa-VA1.2 100 µM, LyNA1 300 µM, mean): 1.00 ± 0.06
- Rectification index of ITPC2, I+80mV/I-80mV ([1]; PI(3,5)P2 0.3 µM, LyNa-VA1.2 100 µM, LyNA1 300 µM, mean, listed as pip2): 0.9981
- PX / PNa, Ca2+ ([1]; individual): 0.016 and 0.034
- PX / PNa, K+ ([1]; individual): 0.02921 and 0.09237 and 0.08877 and 0.01887
- PX / PNa, Na+ ([1]; individual): 0.9921 and 1.104 and 1
- PX / PNa, Ca2+ ([1]; mean): 0.022
- PX / PNa, K+ ([1]; mean): 0.05731
- PX / PNa, Na+ ([1]; mean): 1.032
- activation of whole-endolysosome ITPC2 (in words) ([1]; bath application, symmetric Na^+): activated a large whole-endolysosome ITPC2 with linear I-V
- I@500ms/I@10ms (current decline at steady state) ([1]; voltage-step protocols, at all potentials): ~1.0
- effect on whole-endolysosome ITPC1 (in words) [2]: large enhancement at negative potentials
- effect on ITPC1-R540I (in words) [3]: large currents at all potentials
- PX / PNa, K+ ([4]; individual): 0.5092 and 0.6027 and 0.4961 and 0.3927
- PX / PNa, K+ ([4]; mean): 0.5002

Molecule: ML-SA1
- activation of ITRPML1 in TPC1/2 DKO cells (in words) [5]: readily activated ITRPML1
- current, whole-cell ITRPML1-4A [6]: 4274.3 pA and 5928.6 pA

Molecule: CN(C)CCCN1c2ccccc2Sc2ccc(Cl)cc21 [LyNa-VA2.1, Chlorpromazine]
- ITPC2 ([1]; whole endolysosome recordings with 100 µM of LyNa-VAs at −120 mV): 1101 ± 508 pA
- effect on whole-endolysosome ITPC1 (in words) [2]: inhibited ITPC1
- Dose-dependent inhibition of TPC1 (ITPC1, value at 0 µM = 1) ([2]; 3 µM, individual patches): 0.9084 and 0.9958 and 1.027
- Dose-dependent inhibition of TPC1 (ITPC1, value at 0 µM = 1) ([2]; 3 µM, mean): 0.9772
- Dose-dependent inhibition of TPC1 (ITPC1, value at 0 µM = 1) ([2]; 10 µM, individual patches): 0.8547 and 1.003 and 0.8763
- Dose-dependent inhibition of TPC1 (ITPC1, value at 0 µM = 1) ([2]; 10 µM, mean): 0.9114
- Dose-dependent inhibition of TPC1 (ITPC1, value at 0 µM = 1) ([2]; 30 µM, individual patches): 0.8617 and 0.806 and 0.5194
- Dose-dependent inhibition of TPC1 (ITPC1, value at 0 µM = 1) ([2]; 30 µM, mean): 0.729
- Dose-dependent inhibition of TPC1 (ITPC1, value at 0 µM = 1) ([2]; 100 µM, individual patches): 0.4994 and 0.4103 and 0.291
- Dose-dependent inhibition of TPC1 (ITPC1, value at 0 µM = 1) ([2]; 100 µM, mean): 0.4003
- Dose-dependent inhibition of TPC1 (ITPC1, value at 0 µM = 1) ([2]; 300 µM, individual patches): 0.197 and 0.08086 and 0.1214
- Dose-dependent inhibition of TPC1 (ITPC1, value at 0 µM = 1) ([2]; 300 µM, mean): 0.1331
- IC50 ([2]; whole-endolysosome, n = 3 patches, read-out: IC50, inhibition of TPC1): 77 ± 2 µM
- activation of whole-cell ITPC2-LL/AA (in words) ([7]; bath application, symmetric Na^+, 100 µM where stated): ITPC2 was evoked
- current density ([7]; 5 µM): 7.8 pA/pF
- current density ([7]; 10 µM): 11.2294 pA/pF and 9.959 pA/pF and 11.6261 pA/pF and 6.052 pA/pF
- current density ([7]; 20 µM): 17.6973 pA/pF and 20.0248 pA/pF and 34.5739 pA/pF and 9.104 pA/pF
- current density ([7]; 50 µM): 54.3211 pA/pF and 69.6612 pA/pF and 69.313 pA/pF and 27.4087 pA/pF
- current density ([7]; 100 µM): 137.55 pA/pF and 140.785 pA/pF and 150.409 pA/pF and 87.5478 pA/pF
- current density ([7]; 200 µM): 152.165 pA/pF and 168.074 pA/pF and 117.748 pA/pF
- EC50 ([7]; whole-cell recordings at −140 mV, TPC2^LL/AA-transfected HEK293 cells, read-out: EC50): 60 ± 2 µM
